Experimental data published in patent publication US11178870B2 (priority 2017, dated 2021).

Assays:
Phytophthora infestans = assay: whole plant or invertebrate; type: in vivo; settings: in Solanum lycopersicum, read-out: control value, Test F (late blight on tomato)
Plasmopara viticola = assay: Test Example G: Downy mildew on vine; type: in vivo; settings: 250 ppm sprayed (2.5 ml/pot) before inoculation, assessed 7 to 10 days after inoculation, read-out: control value, Test G (downy mildew on vine)
Magnaporthe grisea = assay: whole plant or invertebrate; type: in vivo; settings: Pyricularia oryzae, in Oryza sativa, read-out: control value, Test A (blast on rice)
Puccinia recondita = assay: Test Example E: Brown rust on wheat; type: in vivo; settings: Table 7, Test E, read-out: control value, Test E (brown rust on wheat)
Alternaia brassicicola = assay: Test Example C: Alternaria sooty spot on cabbage; type: in vivo; settings: Brassica oleracea; Table 7, Test C; read-out: control value, Test C (Alternaria sooty spot on cabbage)
Botrytis cinerea = assay: Test Example B: Gray mold on tomato; type: in vivo; settings: Table 7, Test B, read-out: control value, Test B (gray mold on tomato)
[1] = tested on: Blumeria graminis f. sp. hordei; assay: Test Example D: Powdery mildew on barley; type: in vivo; settings: Table 7, Test D, read-out: control value, Test D (powdery mildew on barley)
[2] = tested on: Colletotrichum orbiculare; assay: whole plant or invertebrate; settings: in Cucumis sativus, read-out: control value, Test H (anthracnose on cucumber)
Protocol: Seeds of a test plant (cucumber variety: Sagami Hanjiro) were planted and cultivated until the first leaf appeared. In the test, the compounds of the present invention were dissolved into a dimethyl sulfoxide-methanol mixture solution (volume ratio: 9/1), and the resultant solutions were diluted with well water to a concentration of 250 ppm. The thus-obtained dilutions were sprayed to the test plant (2.5 ml/pot). After the dilutions dried, a conidial suspension (2-4×10^5 conidia/ml) of Colletotrichum orbiculare was inoculated to the plant by spraying. After the inoculation, the plant was kept in a mist chamber at room temperature of 20 to 23° C. for about 24 hours to promote the onset of disease. The disease development was investigated 6 to 10 days after the inoculation, and the effectiveness of the dilutions was evaluated.
Disease development in Test Example described above was evaluated in increments of 0.05 by setting 0 as no incidence of disease and 3 as disease development in a plant of untreated group. In addition, control values were calculated using the following equation based on disease development.
Control value=100 {1−(n/3)}
n=Disease development of each treated groups

Structure (SMILES) | pest or weed control at 250 µg/mL (Phytophthora infestans) | pest or weed control at 250 ppm (Plasmopara viticola) | pest or weed control at 250 µg/mL (Magnaporthe grisea) | pest or weed control at 250 µg/mL (Puccinia recondita) | pest or weed control at 250 µg/mL (Alternaia brassicicola) | pest or weed control at 250 µg/mL (Botrytis cinerea) | pest or weed control at 250 µg/mL [1] | pest or weed control at 250 ppm [2]
CCn1c(-c2c(F)cc(F)cc2F)c(-n2cc(Cl)cn2)cc(C=O)c1=O [compound 265, 5-(4-chloro-1H-pyrazol-1-yl)-1-ethyl-2-oxo-6-(2,4,6-trifluorophenyl)-1,2-dihydropyridin-3-carboaldehyde] | < 50% | < 50% | < 50% | > 50% | > 50% | < 50% | > 50% | < 50%
CCn1c(-c2c(F)cc(F)cc2F)c(-n2cc(Cl)cn2)cc(C(F)F)c1=O [compound 266, 5-(4-chloro-H-pyrazol-1-yl)-3-(difluoromethyl)-1-ethyl-6-(2,4,6-trifluorophenyl)pyridin-2(1H)-one] | < 50% | > 50% | > 50% | > 50% | > 50% | > 50% | > 50% | > 50%
